PubChem BioAssay (NCI)
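How tested: cells in 96-well plates exposed to compound for 48 hours at five concentrations. The concentration for full growth arrest is given as TGI.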

Columns and labels:
Test in all cases: inhibition of tumour cell growth, NCI panel, 48 h
DLD-1 colon = test system: DLD-1 colon
DMS 114 small cell lung = test system: DMS 114 small cell lung
DMS 273 small cell lung = test system: DMS 273 small cell lung
HOP-18 NSCLC = test system: HOP-18 NSCLC
KM20L2 colon = test system: KM20L2 colon
LXFL 529 NSCLC = test system: LXFL 529 NSCLC
M19-MEL melanoma = test system: M19-MEL melanoma
XF 498 CNS = test system: XF 498 CNS
RXF-631 renal = test system: RXF-631 renal

SMILES | TGI (DLD-1 colon) [µM] | TGI (DMS 114 small cell lung) [µM] | TGI (DMS 273 small cell lung) [µM] | TGI (HOP-18 NSCLC) [µM] | TGI (KM20L2 colon) [µM] | TGI (LXFL 529 NSCLC) [µM] | TGI (M19-MEL melanoma) [µM] | TGI (XF 498 CNS) [µM] | TGI (RXF-631 renal) [µM]
Nc1ccc(Sc2c3ccccc3nc3ccccc23)cc1 | 19.7 | 38 | 28.8 | 41.7 | 33.1 | 21 | 47.9 | 28 | –
CCOC(=O)C1(Br)S(=O)(=O)OCCOS1(=O)=O | > 100 | > 100 | > 100 | – | > 100 | – | > 100 | > 100 | –
COC(=O)C1C=CCON2CCc3c(n(S(=O)(=O)c4ccccc4)c4ccccc34)C12 (stereo not drawn) | > 22.8 | > 87.7 | > 66.2 | > 100 | > 63.2 | > 100 | > 70.5 | – | –
COC(=O)C(/C(=N\NC(N)=S)C(=O)Nc1ccccc1[N+](=O)[O-])c1cnc2ccccc2n1 (stereo not drawn) | > 100 | > 100 | > 100 | > 100 | > 100 | > 100 | > 100 | > 100 | > 100
COc1ccc2nc(NC(=O)C(=O)NNC(=O)c3ccncc3)sc2c1 | > 100 | > 100 | – | > 100 | > 100 | > 100 | > 100 | > 100 | –
O=c1cc(-c2ccccc2)[nH]c2cc(Cl)ccc12 | 23.8 | 3.29 | 10.5 | > 100 | 3.2 | 53.2 | > 100 | 1.71 | –
COC(=O)C1(C)NCCc2c1[nH]c1ccccc21 (stereo not drawn) | > 100 | > 100 | – | – | > 100 | > 100 | > 100 | – | –
CN(C(=O)c1ccco1)C(=S)N1CCN(c2ccccn2)CC1 | > 100 | – | > 100 | > 100 | > 100 | > 100 | > 100 | > 100 | –
COc1cccc(NC(=O)C(=O)C2C=CCS2(=O)=O)c1 (stereo not drawn) | > 100 | > 100 | – | > 100 | > 100 | > 100 | > 100 | > 100 | –
CCOC(=O)c1cccnc1C(OC(C)=O)OC(C)=O | > 100 | > 100 | > 100 | > 100 | > 100 | > 100 | > 100 | > 100 | –
CCCN(CCC)C1=Nc2ccccc2-n2cnnc2C1 | – | > 100 | > 100 | – | > 100 | > 100 | > 100 | > 100 | –
C=C1Cc2cc(OC)c(OC)c(OC)c2-c2ccc(SC)c(=O)cc21 | 3.7 | < 0.0279 | – | 11.9 | – | 1.81 | 2.42 | – | –
CCOC(=O)CNc1nnnn1C1OC(CO)C(O)C1O (stereo not drawn) | > 100 | > 100 | > 100 | – | > 100 | > 100 | > 100 | > 100 | –
COc1ccc(-c2cc(=O)c3c(O)cc(O)cc3o2)c(OC)c1OC | > 100 | > 100 | – | – | > 100 | > 100 | > 100 | > 100 | –
O=C1C=CC2(C=C1)C[C@H](NC(=O)OCc1ccccc1)C(=O)O2 | 14.1 | 47.2 | 35 | 31.5 | 38.7 | 24.7 | 33.7 | 32 | 40.8
COc1c2c(cc3c1C(=O)Cc1ccc4c(c1CN(C)CC3)OCO4)OCO2 | > 100 | > 100 | – | > 100 | > 100 | – | > 100 | – | > 100
O=c1c2c(c1=O)-c1ccccc1CN2 | > 100 | > 100 | > 100 | – | > 100 | > 100 | > 100 | > 100 | –
